Experimental data taken from patent publication US6353124B1, “Therapeutic compound-fatty acid conjugates” (priority 1993, dated 2002).
Like-named read-outs stand apart in the source and are kept apart here.

Tests used:
UVB induced burns = test: Effect on UVB induced burns in mice, topical application; type: in vivo
Method: (§1) Method Groups of 3 female mice were exposed to 3 MED of UVB on their dorsal surface and then were immediately painted (by smoothing the topical solution over the dorsal surface) with 60 μl or 100 μl of vehicle or vehicle containing increasing concentrations of NSAID's or NSAID fatty acid conjugates. The vehicle used was a variation of previously published vehicles and consisted of ethanol:DMSO at a 5:1 ratio. The test NSAID's and their conjugates were either applied after UVB irradiation to reduce the possibility of sun-screening effects (Day 0), or 1 to 5 days prior to UVB exposure. The oedema was then determined by measuring the skin fold thickness (SFT) of a folded mid-dorsal piece of skin using a hand-held micrometer. Measurements were taken at 0 hours, just prior to UVB exposure and at 24 hours post UVB exposure. A control group, painted with 60 or 100 μl of the vehicle, was used to determine the increase in skin oedema due to the inflammatory response. […] The pre UVB SFT measurement was subtracted from the 24 hour SFT measurement, to determine the Net Skin Fold Thickness increase (NSFT).
Individual scores are presented for each mouse ie a result indicated as 5,4,3 is interperated as the first mouse having a severe burn, the second mouse a moderate to severe burn and the third mouse a moderate burn.

sunburn erythema [1] = settings: 2.5% in propylene glycol:ethanol:dimethylacetamide (19:19:2), 3 MED of UV light, guinea-pigs; cited from earlier work
Skh-1 mouse = test: Toxicity and tolerability of topically applied indomethacin in Skh-1 mice; type: in vivo; settings: painted on dorsal surface, range 0.1% to 2.5% tested
Method: as §1
As a preliminary study the ability of indomethacin to protect against oedema in Skh-1 mouse was determined. Indomethacin over a concentration range from 0.1% to 2.5% was applied after the mice had been irradiated with UVB; non-irradiated controls were also run. […]

sunburn erythema [2] = settings: 2.5% in propylene glycol:ethanol:dimethylacetamide (19:19:2), 3 MED of UV light, humans; cited from earlier work
UVB induced oedema = UVB induced oedema (net skin fold thickness increase) in SKH-1 hairless mice, topical application; type: in vivo; settings: for Immediate Activity Results, highest to lowest (ranking): painted after 3 MED UVB, 4% ibuprofen equivalent (Ibu-ATP3 at 2%), FIG. 5; for effect on oedema at 2%: 2% ibuprofen, as the conjugate or as the free drug; for photoprotection against UVB induced oedema against interval of application: crude 2% (30% purity, contaminated with GTP2), 100 μl, days -5 to 0, FIG. 3
Method: The vehicle used was a variation of previously published vehicles and consisted of ethanol:DMSO at a 5:1 ratio. […] The oedema was then determined by measuring the skin fold thickness (SFT) of a folded mid-dorsal piece of skin using a hand-held micrometer. Measurements were taken at 0 hours, just prior to UVB exposure and at 24 hours post UVB exposure. A control group, painted with 60 or 100 μl of the vehicle, was used to determine the increase in skin oedema due to the inflammatory response. […] The pre UVB SFT measurement was subtracted from the 24 hour SFT measurement, to determine the Net Skin Fold Thickness increase (NSFT).

For `COc1ccc2c(c1)c(CC(=O)O)c(C)n2C(=O)c1ccc(Cl)cc1` [indomethacin, 1-(4-Chlorobenzoyl)-5-methoxy-2-methyl-1H-indole-3-acetic acid], the “effect on burn repair” value (UVB induced burns; indomethacin levels that prevent oedema) is given as “little or no effect on burn repair”, the “protection against sunburn erythema” value (sunburn erythema [1]) is given as “total protection” and the “topical concentration lethal after 36 hours (gastrointestinal haemorrhage)” value (Skh-1 mouse) is given as ≥ 2%. For the same compound, the “protection against sunburn erythema” value (sunburn erythema [2]) was “total protection”, the “anti-inflammatory effect at 0.1%” value (UVB induced oedema; 0.1% applied after UVB, 24 hours) was “mild anti-inflammatory effect” and the “erythema and oedema with concentration” value (UVB induced oedema; 0.1% to 2.5% applied after UVB) was “decrease in erythema and oedema with increasing concentrations”. For the same compound, the “protection against UVB induced oedema, applied 3 days prior to UVB” value (UVB induced oedema; 1% indomethacin, 3 days prior to exposure, FIG. 2) was “approximately 50%”, the “protection against UVB induced oedema, applied 5 days prior to UVB” value (UVB induced oedema; 1% indomethacin, 5 days prior to exposure, FIG. 2) was “not present” and the “protective effect on UVB induced oedema against interval of application” value (UVB induced oedema; 100 μl of 1% solution, days -5 to -1 before UVB and Day 0, NSFT at 24 hours, FIG. 2) was “loses its protective effect on UVB induced oedema as the interval of application prior to exposure increases”. The “concentration giving maximal protection against erythema and oedema” value (UVB induced oedema; applied after UVB, 24 hours, range 0.1% to 2.5%) was ≥ 1%.
In the case of ibuprofen-alanine-Tris [Ibu-AT], the “Immediate Activity Results, highest to lowest (ranking)” value (“Immediate Activity Results, highest” below) (UVB induced oedema) is reported as 4% Ibu=4% Ibu-ATP>4% Ibu-ATP2>4% Ibu-AT=2% Ibu-ATP3.
For “ibuprofen-alanine-Tris-dipalmitate [Ibu-ATP2]”, the “Immediate Activity Results, highest” value (UVB induced oedema) was 4% Ibu=4% Ibu-ATP>4% Ibu-ATP2>4% Ibu-AT=2% Ibu-ATP3.
In the case of “ibuprofen-alanine-Tris-monopalmitate [Ibu ATP1]”, the “protective effect on UVB induced burns” value (UVB induced burns; 2%, painted after 3 MED UVB, compared with unmodified ibuprofen) is reported as “protective effect on UVB induced burns to a much greater extent than unmodified ibuprofen”, the “effect on oedema at 2%” value (UVB induced oedema) is reported as “little effect on oedema” and the “Immediate Activity Results, highest” value (UVB induced oedema) is reported as 4% Ibu=4% Ibu-ATP>4% Ibu-ATP2>4% Ibu-AT=2% Ibu-ATP3.
For “ibuprofen-alanine-Tris-tripalmitate [Ibu-ATP3]”, the “Immediate Activity Results, highest” value (UVB induced oedema) was 4% Ibu=4% Ibu-ATP>4% Ibu-ATP2>4% Ibu-AT=2% Ibu-ATP3.
With “indomethacin-glycine-Tris-dipalmitate [Indo-GTP2]” the “photoprotection against UVB induced oedema against interval of application” value (UVB induced oedema) was “most protective 5 days prior to irradiation with UVB”, the “photoprotection against UVB induced oedema against interval of application” value (UVB induced oedema; listed as indomethacin-glycine-Tris-dipalmitate) was “most pronounced at 5 days prior to exposure with UVB” and the “prolonged and immediate protective activity against UVB induced oedema” value (UVB induced oedema; high purity, 2% (indomethacin equivalent), painted 5 days prior to or immediately after UVB, compared with Indo-GTP3, Indo-EP1, Indo-GEP1, FIG. 4) was “highest levels of prolonged and immediate activity”.
For “α-Methyl-4-(2-methylpropyl)benzene acetic acid [Ibu cont]”, the “effect on oedema at 2%” value (UVB induced oedema) was “little effect on oedema” and the “Immediate Activity Results, highest” value (UVB induced oedema) was 4% Ibu=4% Ibu-ATP>4% Ibu-ATP2>4% Ibu-AT=2% Ibu-ATP3.
